Target: T1, CFTR (F508del/MF-HBE cells) (Homo sapiens, UniProt P13569, DEL508-508)
T1 construct: human bronchial epithelial (HBE) cells derived from CF subjects heterozygous for F508del and a minimal function CFTR mutation; endogenous in cells; host or cells: primary human bronchial epithelial cells from CF subjects (F508del/MF genotype)
Assay: Ussing chamber assay of CFTR-mediated short-circuit currents (identification of potentiator compounds)
Assay type: cell-based
Conditions: CFTR-mediated ISC in F508del/MF-HBE cells; incubated 18-24 hours at 37° C. with 10 μM (14S)-8-[3-(2-{dispiro[2.0.2.1]heptan-7-yl}ethoxy)-1H-pyrazol-1-yl]-...-2,2,4-trione, 20% human serum
Procedure, shortened: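 Short-circuit current was voltage-clamped at 0 mV and 37 °C in pH 7.4 HEPES buffers, with amiloride (30 μM) on the apical side. The CFTR component was defined as forskolin (20 μM) peak minus residual current after BPO/GlyH-101/CFTRinh-172 at 20 μM each. Cells had been pretreated 18–24 h with potentiator concentrations and 10 μM corrector in 20% human serum, kept throughout the measurement.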

T1 sequence (P13569 with tags, fused parts or gaps DEL508-508): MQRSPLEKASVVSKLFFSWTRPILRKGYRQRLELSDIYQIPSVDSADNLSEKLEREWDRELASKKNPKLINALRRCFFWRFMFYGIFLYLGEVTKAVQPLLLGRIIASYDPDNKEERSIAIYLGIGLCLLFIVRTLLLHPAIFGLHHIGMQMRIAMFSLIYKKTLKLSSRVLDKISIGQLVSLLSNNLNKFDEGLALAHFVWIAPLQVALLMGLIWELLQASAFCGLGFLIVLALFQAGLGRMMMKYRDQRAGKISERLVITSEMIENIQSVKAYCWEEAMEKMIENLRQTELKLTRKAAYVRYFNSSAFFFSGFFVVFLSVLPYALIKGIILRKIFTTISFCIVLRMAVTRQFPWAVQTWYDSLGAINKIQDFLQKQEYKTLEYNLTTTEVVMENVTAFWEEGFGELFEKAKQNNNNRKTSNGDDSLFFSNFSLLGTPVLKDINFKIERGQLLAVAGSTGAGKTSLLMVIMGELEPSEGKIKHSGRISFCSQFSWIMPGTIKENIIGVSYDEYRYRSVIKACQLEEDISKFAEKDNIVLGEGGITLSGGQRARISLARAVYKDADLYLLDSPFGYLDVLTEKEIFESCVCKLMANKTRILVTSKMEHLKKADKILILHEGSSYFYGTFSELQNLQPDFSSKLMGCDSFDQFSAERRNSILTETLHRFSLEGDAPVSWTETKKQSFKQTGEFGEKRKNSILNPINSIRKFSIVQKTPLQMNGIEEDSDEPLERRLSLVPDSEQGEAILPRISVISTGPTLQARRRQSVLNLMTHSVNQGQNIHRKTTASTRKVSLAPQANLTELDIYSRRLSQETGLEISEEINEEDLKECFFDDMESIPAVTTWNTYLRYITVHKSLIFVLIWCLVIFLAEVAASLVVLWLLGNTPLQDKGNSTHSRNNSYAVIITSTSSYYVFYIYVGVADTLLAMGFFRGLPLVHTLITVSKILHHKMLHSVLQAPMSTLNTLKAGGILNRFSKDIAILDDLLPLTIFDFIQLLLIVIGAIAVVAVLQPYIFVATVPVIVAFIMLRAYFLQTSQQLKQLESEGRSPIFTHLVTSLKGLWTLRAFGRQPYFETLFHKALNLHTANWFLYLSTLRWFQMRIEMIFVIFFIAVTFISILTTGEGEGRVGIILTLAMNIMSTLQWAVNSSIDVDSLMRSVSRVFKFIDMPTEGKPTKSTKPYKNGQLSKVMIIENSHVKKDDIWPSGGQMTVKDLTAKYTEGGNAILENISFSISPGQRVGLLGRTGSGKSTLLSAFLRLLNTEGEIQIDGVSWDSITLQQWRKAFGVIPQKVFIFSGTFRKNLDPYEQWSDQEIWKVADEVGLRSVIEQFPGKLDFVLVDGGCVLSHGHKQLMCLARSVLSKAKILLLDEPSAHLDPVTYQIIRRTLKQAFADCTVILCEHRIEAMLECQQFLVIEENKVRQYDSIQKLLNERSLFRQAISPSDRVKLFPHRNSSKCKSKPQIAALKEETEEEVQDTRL

EC50 [nM] | SMILES
< 500 | CCOC(=O)C1CCCCCC(O)(C(F)(F)F)C2=NN=C(O2)c2nc(c(C(F)(F)F)cc2N)N1 (single isomer, unassigned) [Compound 94, ethyl 17-amino-6-hydroxy-6,15-bis(trifluoromethyl)-19-oxa-3,4,13,18-tetrazatricyclo[12.3.1.12,5]nonadeca-1(18),2,4,14,16-pentaene-12-carboxylate]
< 500 | CCOC(=O)C1CCCCCC(O)(C(F)(F)F)C2=NN=C(O2)c2nc(c(C(F)(F)F)cc2N)N1 (single isomer, unassigned) [Compound 95, ethyl 17-amino-6-hydroxy-6,15-bis(trifluoromethyl)-19-oxa-3,4,13,18-tetrazatricyclo[12.3.1.12,5]nonadeca-1(18),2,4,14,16-pentaene-12-carboxylate]
> 1000 | CCOC(=O)C1CCCCCC(O)(C(F)(F)F)C2=NN=C(O2)c2nc(c(C(F)(F)F)cc2N)N1 (single isomer, unassigned) [Compound 97, ethyl 17-amino-6-hydroxy-6,15-bis(trifluoromethyl)-19-oxa-3,4,13,18-tetrazatricyclo[12.3.1.12,5]nonadeca-1(18),2,4,14,16-pentaene-12-carboxylate]
> 1000 | CP(C)(=O)c1cc(N)c2nc1N1CCC[C@H]1CCCCCC(O)(C(F)(F)F)C1=NN=C2O1 (single isomer, unassigned) [Compound 98]
> 1000 | CP(C)(=O)c1cc(N)c2nc1N1CCC[C@H]1CCCCCC(O)(C(F)(F)F)C1=NN=C2O1 (single isomer, unassigned) [Compound 99]
500 to 1000 | Nc1cc(C(F)(F)F)c2nc1-c1nnc(o1)C(O)(CO)CCCCC[C@@H]1CCCN21 (single isomer, unassigned) [Compound 100]
< 500 | Nc1cc(C(F)(F)F)c2nc1-c1nnc(o1)C(O)(CO)CCCCC[C@@H]1CCCN21 (single isomer, unassigned) [Compound 101]
< 500 | Nc1cc(C(F)(F)F)c2nc1-c1nnc(o1)C(O)(C(F)(F)F)CCCCCC(CO)N2 (single isomer, unassigned) [Compound 102, 17-amino-12-(hydroxymethyl)-6,15-bis(trifluoromethyl)-19-oxa-3,4,13,18-tetrazatricyclo[12.3.1.12,5]nonadeca-1(18),2,4,14,16-pentaen-6-ol]
< 500 | Nc1cc(C(F)(F)F)c2nc1-c1nnc(o1)C(O)(C(F)(F)F)CCCCCC(CO)N2 (single isomer, unassigned) [Compound 103, 17-amino-12-(hydroxymethyl)-6,15-bis(trifluoromethyl)-19-oxa-3,4,13,18-tetrazatricyclo[12.3.1.12,5]nonadeca-1(18),2,4,14,16-pentaen-6-ol]
< 500 | Nc1cc(C(F)(F)F)c2nc1-c1nnc(o1)C(O)(C(F)(F)F)CCCCCC(CO)N2 (single isomer, unassigned) [Compound 104, 17-amino-12-(hydroxymethyl)-6,15-bis(trifluoromethyl)-19-oxa-3,4,13,18-tetrazatricyclo[12.3.1.12,5]nonadeca-1(18),2,4,14,16-pentaen-6-ol]
> 1000 | Nc1cc(C(F)(F)F)c2nc1-c1nnc(o1)C(O)(C(F)(F)F)CCCCCC(CO)N2 (single isomer, unassigned) [Compound 105, 17-amino-12-(hydroxymethyl)-6,15-bis(trifluoromethyl)-19-oxa-3,4,13,18-tetrazatricyclo[12.3.1.12,5]nonadeca-1(18),2,4,14,16-pentaen-6-ol]
< 500 | Nc1cc(C(F)(F)F)c2nc1-c1nnc(o1)C(O)(C(F)(F)F)CCCCCCC(=O)N2 (single isomer, unassigned) [Compound 106, 18-Amino-6-hydroxy-6,16-bis(trifluoromethyl)-20-oxa-3,4,14,19-tetrazatricyclo[13.3.1.12,5]icosa-1(19),2,4,15,17-pentaen-13-one]
> 1000 | Nc1cc(C(F)(F)F)c2nc1-c1nnc(o1)C(O)(C(F)(F)F)CCCCCCC(=O)N2 (single isomer, unassigned) [Compound 107, 18-amino-6-hydroxy-6,16-bis(trifluoromethyl)-20-oxa-3,4,14,19-tetrazatricyclo[13.3.1.12,5]icosa-1(19),2,4,15,17-pentaen-13-one]
< 500 | Nc1cc(C(F)(F)F)c2nc1-c1nnc(o1)C(O)(C(F)(F)F)CCCCCC(=O)N2 (single isomer, unassigned) [Compound 108, 17-amino-6-hydroxy-6,15-bis(trifluoromethyl)-19-oxa-3,4,13,18-tetrazatricyclo[12.3.1.12,5]nonadeca-1(18),2,4,14,16-pentaen-12-one]
> 1000 | Nc1cc(C(F)(F)F)c2nc1-c1nnc(o1)C(O)(C(F)(F)F)CCCCCC(=O)N2 (single isomer, unassigned) [Compound 109, 17-amino-6-hydroxy-6,15-bis(trifluoromethyl)-19-oxa-3,4,13,18-tetrazatricyclo[12.3.1.12,5]nonadeca-1(18),2,4,14,16-pentaen-12-one]
< 500 | Nc1cc(C(F)(F)F)c2nc1-c1nnc(o1)C(O)(C(F)(F)F)CCCCCC1CCS(=O)(=O)N21 (single isomer, unassigned) [Compound 110, 20-amino-6-hydroxy-6,18-bis(trifluoromethyl)-22-oxa-15λ6-thia-3,4,16,21-tetraazatetracyclo[15.3.1.12,5.012,16]docosa-1(21),2,4,17,19-pentaene-15,15-dione]
> 1000 | Nc1cc(C(F)(F)F)c2nc1-c1nnc(o1)C(O)(C(F)(F)F)CCCCCC1CCS(=O)(=O)N21 (single isomer, unassigned) [Compound 111, 20-amino-6-hydroxy-6,18-bis(trifluoromethyl)-22-oxa-15λ6-thia-3,4,16,21-tetraazatetracyclo[15.3.1.12,5.012,16]docosa-1(21),2,4,17,19-pentaene-15,15-dione]
500 to 1000 | Nc1cc(C(F)(F)F)c2nc1-c1nnc(o1)C(O)(C(F)(F)F)CCCCCC1CCS(=O)(=O)N21 (single isomer, unassigned) [Compound 112, 20-amino-6-hydroxy-6,18-bis(trifluoromethyl)-22-oxa-15λ6-thia-3,4,16,21-tetraazatetracyclo[15.3.1.12,5.012,16]docosa-1(21),2,4,17,19-pentaene-15,15-dione]
> 1000 | Nc1cc(C(F)(F)F)c2nc1-c1nnc(o1)C(O)(C(F)(F)F)CCCCCC1CCS(=O)(=O)N21 (single isomer, unassigned) [Compound 113, 20-amino-6-hydroxy-6,18-bis(trifluoromethyl)-22-oxa-15λ6-thia-3,4,16,21-tetraazatetracyclo[15.3.1.12,5.012,16]docosa-1(21),2,4,17,19-pentaene-15,15-dione]
< 500 | COc1cc(N)c2nc1N1CCC[C@H]1CCCCCC(O)(C(F)(F)F)C1=NN=C2O1 (single isomer, unassigned) [Compound 114]
> 1000 | COc1cc(N)c2nc1N1CCC[C@H]1CCCCCC(O)(C(F)(F)F)C1=NN=C2O1 (single isomer, unassigned) [Compound 115]
< 500 | Nc1cc(C(F)(F)F)c2nc1-c1nnc(o1)C(O)(C(F)(F)F)CCCCC[C@@H]1COCC(=O)N21 (single isomer, unassigned) [Compound 116]
> 1000 | Nc1cc(C(F)(F)F)c2nc1-c1nnc(o1)C(O)(C(F)(F)F)CCCCC[C@@H]1COCC(=O)N21 (single isomer, unassigned) [Compound 117]
